{"source": "patent US9403841B2", "about": "“Phragamalin limonoids for the treatment of sexual dysfunction” (DICOTYLEDON AB, priority 2012, dated 2016)", "key": {"male mice [1]": {"test_system": "male mice", "assay": "Sexual behavior test: number of mounts of male mice on sexually receptive female mice during one hour", "format": "in vivo", "source_text": "A “sexually enhancing effect” is defined herein as the effect being observable as an at least 50% increase, more preferably at least 75% increase, in the number of mounts of sexually naive male mice onto sexually receptive female mice (both preferably being of 8 to 10 weeks of age), after a compound has been administered (orally or sub-cutaneously) to the male mice, the male mice are thereafter, each one separately, being introduced to a sexually receptive female mouse; the observed number of mounts being compared with the number of mounts for control male mice (i.e. control mice being male mice of the same age and strain as the treated ones, but which were not administered the compound but otherwise handled in the same way as the treated mice). The observation period shall be 1 h. It is further required that the number of male mice in each one of the treated and non-treated groups amount to at least three, more preferably to at least four, even more preferably to at least five, and most preferably to at least six in each group for the test to be valid; the average number of mounts for the non treated (average_mount_control) and treated (average_mount_treated) during the 1 h observation period are then calculated and the percent increase (Effect) is then being computed as:\nMice of 9 weeks age weighing 30±2 g were used throughout the study. They were all sexually unskilled. At 4 weeks of age they had been separated from their parents and males and females had been placed in separated cages. The mice were fed with pellets enriched with proteins and lipids.\nPrior to the tests, male and female mice received specific treatments, as follows: […]\nAt 3.00 pm, a female mouse was introduced into each cage hosting a male mouse. The number of mounts of the male mouse, defined as a tentative of lateral or dorsal mounting on the female mouse with or without penis intromission, was then counted during a one-hour observation period and used as a simple measure of sexual behavior activity."}, "male mice [2]": {"test_system": "male mice", "details": "see WO 2008/145996; cited from earlier work"}}, "data": [{"smiles": "COC(=O)CC1C2(C)CC34OC5(C)OC67C(CC(=O)OC6C3(O)C2OC(=O)C(C)C)C(C)(C(=O)c2ccoc2)CCC7(O5)C14C", "note": "(stereo not shown) [SAE5]", "values": [{"measurement": "dose at which clear and significant increases in number of mounts were seen already", "setting": "male mice [1]; oral in olive oil for three consecutive days, doses tested 0.004-4 mg/kg", "value": 0.04, "unit": "mg/kg"}, {"measurement": "maximum number of mounts over the one hour observation period (average)", "setting": "male mice [1]; oral, 4 mg/kg for three consecutive days, D-4", "value": 37, "unit": "mounts"}]}, {"smiles": "COC(=O)CC1C2(C)CC34OC5(C)OC67C(CC(=O)OC6C3(OC(=O)C(C)C)C2OC(=O)C(C)C)C(C)(C(=O)c2ccoc2)CCC7(O5)C14C", "note": "(stereo not shown) [Compound R306]", "values": [{"measurement": "potency to induce a sexual enhancing effect (comparison)", "setting": "male mice [2]", "value": "more potent than R310"}]}, {"smiles": "COC(=O)CC1C2(C)CC34OC5(C)OC67C(CC(=O)OC6C3(O)C2OC(C)=O)C(C)(C(OC(=O)C(F)(F)F)c2ccoc2)CCC7(O5)C14C", "note": "(stereo not shown) [GL-1203]", "values": [{"measurement": "dose at which a clear and significant increase in the mounting frequency was seen (only at this dose)", "setting": "male mice [1]; subcutaneous in olive oil for three consecutive days, doses tested 0.04, 0.4, 4 mg/kg", "value": 4, "unit": "mg/kg"}]}]}
